# Reference: patent US7868011B2 (General Atomics, priority 2003, dated 2011)
# Key:
# [1] = system: primary antibody production in response to SRBC; assay: Quantitative hemolysis of sheep red blood cells (QHS) assay; assay type: in vivo, Balb/c mice; conditions: 7-day intraperitoneal injection
# Experimental: Female Babl/c mice were immunized by intraperitoneal injection with 0.2 ml of 16.7% of SRBC on day 4. Vehicle, Dexamethasone and DZ2002 were administrated on each group (n=6) by intraperitoneal injection on 7 consecutive days of 1-7. On day 8, mice were sacrificed and made a mixed suspension of spleen cells of 2×10^6 cells/ml. 1 ml of cell suspension was incubated with 1 ml of 0.5% SRBC and 1 ml of 1:10 dilution of guinea pig complement for 1 h at 37° C., then centrifuged (3 min, 3000 g) and determined the supernatant hemolysis at 413 nm, according to Simpson et al., J. Immunol. Methods., 21(1-2):159-65. (1978) with some modifications. Each group was triplicated.
# SAH hydrolase = SAH hydrolase (Rattus norvegicus, UniProt P10760); conditions: cited from earlier work
# Sequence of SAH hydrolase (P10760 whole entry): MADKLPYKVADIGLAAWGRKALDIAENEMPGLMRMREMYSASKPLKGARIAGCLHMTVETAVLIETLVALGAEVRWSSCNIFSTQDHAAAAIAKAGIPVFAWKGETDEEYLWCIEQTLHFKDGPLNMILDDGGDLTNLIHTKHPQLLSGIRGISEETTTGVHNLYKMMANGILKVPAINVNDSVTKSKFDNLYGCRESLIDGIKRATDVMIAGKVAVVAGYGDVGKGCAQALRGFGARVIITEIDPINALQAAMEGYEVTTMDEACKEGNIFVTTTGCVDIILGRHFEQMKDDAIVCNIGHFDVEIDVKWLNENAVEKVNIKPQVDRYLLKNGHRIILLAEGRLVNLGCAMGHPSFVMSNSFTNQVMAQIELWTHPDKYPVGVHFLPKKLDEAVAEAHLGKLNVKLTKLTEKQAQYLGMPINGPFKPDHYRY
# [2] = target: intracellular AdoHcy hydrolase (Rattus norvegicus, UniProt P10760); conditions: intracellular enzyme; cited from earlier work
# Sequence of intracellular AdoHcy hydrolase (P10760 whole entry): as above
# [3] = system: C57BL/6 spleen cells stimulated by mitomycin-treated Balb/c spleen cells; assay: Mixed lymphocyte reaction (MLR) proliferation assay; assay type: cell-based, mouse; conditions: 3-day culture
# Experimental: Balb/c mouse spleen cells were prepared in 10^7 cells/ml suspension, cultured 2 h with 50 μg/ml of mitomycin. Then cells were washed and cultured together with fresh C57/B6 mice splenocytes equally in a final concentration of 1.0×10^6 cells/ml in the presence or absence of various concentrations of DZ2002. After 48 hour incubation, cells were pulsed with 0.5 μCi/well of [^3H]-thymidine and cultured for another 24 hours. The cells were then harvested onto glass fiber filters and the incorporated radioactivity was counted using a Beta Scintillator (MicroBeta Trilux, PerkinElmer Life Sciences).
# [4] = system: Mouse splenic lymphocytes; assay: MTT cytotoxicity assay of the splenic lymphocytes; assay type: cell-based; conditions: 0.1-10 μmol/L, two days of culture
# Experimental: Cytotoxicity was assessed with MTT assay. Mouse splenic lymphocytes were incubated in a 96-well plate at 9×10^4 cells/180 μl/well in a humidified CO2 incubator at 37° C. for 48 hours in the presence or absence of various concentrations of DZ2002. Fifteen (15) μl of 5 mg/ml of MTT was pulsed 4 h prior to end of the culture […], and then 80 μl solvent (10% SDS, 50% N,N-dimethy formamide, PH7.2) was added. Incubate for 7 h and read OD590 at a microplate reader (Bio-rad Model 550 Japan).
# [5] = system: TG induced peritoneal macrophages; assay: cytokine production from TG induced peritoneal macrophages (ELISA); assay type: cell-based, BALB/C mice; conditions: IFN-γ and LPS 24 h, 0.1-10 μmol/L
# Experimental: Peritoneal exudate cells were induced in BALB/C mice by an intraperitoneal injection of 0.5 ml of 3% TG. After 4 days, the peritoneal exudates cells were harvested by sterile lavage.
# Murine peritoneal exudate cells (6.25×10^5) were cultured in 24-well plates in a volume of 1 ml/well for 2 hours. In adherent cells were washed by ice cold RPMI 1640 and adherent cells were culture in a volume of 2 ml/well in the presence of IFN-γ (2.5 ng/ml) and LPS (1 μg/ml) in the presence or absence of various concentrations of DZ2002. After 24 h, cell-free supernatant was collected and frozen at −20° C. The concentrations of IL-12p40, IL-12p70, IL-10 and TNF-α were determined by ELISA.
# Cytokines produced by peritoneal macrophages were assessed following a 24-h incubation with IFN-γ at 25 U/ml and LPS at 1 μg/ml. Resident peritoneal cells produce low levers of cytokines except for some IL-10 with incubated with IFN-γ and LPS (data not shown). As for TG induced peritoneal macrophages, DZ2002 inhibited IL-12P40 and TNF-α release, but have no effect on IL-10 production in the dose of 0.1-10 μmol/L (FIG. 5).
# [6] = system: lupus-prone MRL-Fas^lpr mice; assay: survival of lupus-prone MRL-Fas lpr mice; assay type: in vivo, mouse; conditions: 50 mg/kg/day i.p.
# Experimental: MRL-Fas^lpr female mice were provided by The Jackson Laboratory (Bar Harbor, Me.). The mice were housed in specific pathogen-free (SPF) conditions with room temperature of 24±2° C., 12 hr light/dark cycle, and provided with sterile food and water ad libitum. Starting at approximately 6 weeks of age, MRL-Fas^lpr mice (n=11-13/group) were dosed i.p. every day with either DZ2002 (50 mg/kg/day) or with vehicle (0.4% DMSO/PBS) for ˜9 months and followed for survival. Mouse survival data were analyzed by the Kaplan-Meir method with comparison by the log-rank test; p<0.05 was considered to be significant.
structure (smiles),measurement,setting,value
"C[C@@H]1C[C@H]2[C@@H]3CCC4=CC(=O)C=C[C@]4(C)[C@@]3(F)[C@@H](O)C[C@]2(C)[C@@]1(O)C(=O)CO [Dethamethasone, reference compound]",inhibition of QHS,[1]; 5 mg/kg,38.1%
"Nc1ncnc2c1ncn2C[C@H](O)CO [(S)-DHPA, (S)-9-(2,3-dihydroxypropyl)adenine]",type of inhibition of isolated AdoHcy hydrolase,SAH hydrolase; isolated enzyme,reversible inhibitor
same,Ki,SAH hydrolase; read-out: Ki value against SAH hydrolase,3.5 µM
same,type of inhibition of intracellular AdoHcy hydrolase,[2],irreversible inhibitor
"COC(=O)C(O)CCn1cnc2c(N)ncnc21 (stereo not drawn) [DZ2002, Methyl 4-(Adenin-9-yl)-2-hydroxybutanoate]",inhibition of QHS,[1]; 0.08 mg/kg,24.5%
same,inhibition of QHS,[1]; 2 mg/kg,18.4%
same,suppression of MLR,[3]; 0.1 μmol/L,40.2%
same,suppression of MLR,[3]; 1 μmol/L,36.9%
same,suppression of MLR,[3]; 10 μmol/L,42.3%
same,"cytotoxicity to spleen cells (MTT, OD)",[4],no cytotoxicity
same,IL-10 production,[5],no effect
same,age at which extension in survival was first observed,[6],approximately 160 days of age
